pIC50: −log10 of the molar value.
Tested on: HIV-1 IIIB
Experiment: HOS HIV-1 infectivity assay
Format: cell-based
Conditions: Human immunodeficiency virus 1, IIIB; as determined by the infectivity assay; strain not stated in Table 2; read-out: Activity Level
Outline: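 Engineered HOS reporter cells in 2% FCS medium received compound 1 h ahead of HIV-1 (~2 million RLU/well). Cultures ran 96 h at 37 °C before luciferase quantitation; parallel uninfected wells were scored for viability by CellTiter-Glo.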

pIC50	SMILES
6.30 to 7.00	CN(Cc1nc2ccccc2n1C[C@@H]1CCCN(C(=N)N)C1)[C@@H]1CCCc2cccnc21 [Example 86, (3S)-3-{[2-({Methyl[(8R)-5,6,7,8-tetrahydro-8-quinolinyl]amino}methyl)-1H-benzimidazol-1-yl]methyl}-1-piperidinecarboximidamide]
> 7.00	CN(Cc1nc2ccccc2n1CC(=O)NCc1cccnc1)C1CCCc2cccnc21 (stereo not drawn) [Example 29, 2-(2-{[Methyl(5,6,7,8-tetrahydro-8-quinolinyl)amino]methyl}-1H-benzimidazol-1-yl)-N-(3-pyridinylmethyl)acetamide]
6.30 to 7.00	CC(C)CCN1CCC[C@@H](Cn2c(CN(C)[C@@H]3CCCc4cccnc43)nc3ccccc32)C1 [Example 78, (8R)—N-Methyl-N-[(1-{[(3R)-1-(3-methylbutyl)-3-piperidinyl]methyl}-1H-benzimidazol-2-yl)methyl]-5,6,7,8-tetrahydro-8-quinolinamine]
> 7.00	CN(C)CC(C)(C)Cn1c(CN(C)C2CCCc3cccnc32)nc2ccccc21 (stereo not drawn) [Example 67, N-({1-[3-(Dimethylamino)-2,2-dimethylpropyl]-1H-benzimidazol-2-yl}methyl)-N-methyl-5,6,7,8-tetrahydro-8-quinolinamine]
6.30 to 7.00	CN1CCC[C@H](Cn2c(CN(C)[C@@H]3CCCc4cccnc43)nc3ccccc32)C1 [Example 76, (8R)—N-Methyl-N-[(1-{[(3S)-1-methyl-3-piperidinyl]methyl}-1H-benzimidazol-2-yl)methyl]-5,6,7,8-tetrahydro-8-quinolinamine]
> 7.00	CN1CCC[C@H](Cn2c(CN(CCO)[C@H]3CCCc4cccnc43)nc3ccccc32)C1 [Example 95, 2-{[(1-{[(3S)-1-Methyl-3-piperidinyl]methyl}-1H-benzimidazol-2-yl)methyl][(8S)-5,6,7,8-tetrahydro-8-quinolinyl]amino}ethanol]
6.30 to 7.00	CN(Cc1nc2ccccc2n1CCCNS(=O)(=O)c1ccccc1)C1CCCc2cccnc21 (stereo not drawn) [Example 62, N-[3-(2-{[Methyl(5,6,7,8-tetrahydro-8-quinolinyl)amino]methyl}-1H-benzimidazol-1-yl)propyl]benzenesulfonamide]
> 7.00	CN(Cc1nc2ccccc2n1C[C@@H]1CCCNC1)[C@H]1CCCc2cccnc21 [Example 75e, (8S)—N-Methyl-N-({1-[(3R)-3-piperidinylmethyl]-1H-benzimidazol-2-yl}methyl)-5,6,7,8-tetrahydro-8-quinolinamine]
> 7.00	CC(C)CCNCCCn1c(CN(C)C2CCCc3cccnc32)nc2ccccc21 (stereo not drawn) [Example 64, N-Methyl-N-[(1-{3-[(3-methylbutyl)amino]propyl}-1H-benzimidazol-2-yl)methyl]-5,6,7,8-tetrahydro-8-quinolinamine]
6.30 to 7.00	CC(C)CCN(Cc1nc2ccccc2n1CCCCN)C1CCCc2cccnc21 (stereo not drawn) [Example 54, N-{[1-(4-Aminobutyl)-1H-benzimidazol-2-yl]methyl}-N-(3-methylbutyl)-5,6,7,8-tetrahydro-8-quinolinamine]
6.30 to 7.00	CN(Cc1nc2ccccc2n1CCCNS(C)(=O)=O)C1CCCc2cccnc21 (stereo not drawn) [Example 63, N-[3-(2-{[Methyl(5,6,7,8-tetrahydro-8-quinolinyl)amino]methyl}-1H-benzimidazol-1-yl)propyl]methanesulfonamide]
> 7.00	CC(C)N1CCC[C@@H](Cn2c(CN(C)[C@H]3CCCc4cccnc43)nc3ccccc32)C1 [Example 81, (8S)—N-Methyl-N-[(1-{[(3R)-1-(1-methylethyl)-3-piperidinyl]methyl}-1H-benzimidazol-2-yl)methyl]-5,6,7,8-tetrahydro-8-quinolinamine]
6.30 to 7.00	CN(Cc1nc2ccccc2n1CC(=O)NCCN)C1CCCc2cccnc21 (stereo not drawn) [Example 31, N-(2-Aminoethyl)-2-(2-{[methyl(5,6,7,8-tetrahydro-8-quinolinyl)amino]methyl}-1H-benzimidazol-1-yl)acetamide]
> 7.00	CN(Cc1nc2ccccc2n1C[C@@H]1CCCN(C(=N)N)C1)[C@H]1CCCc2cccnc21 [Example 87, (3S)-3-{[2-({Methyl[(8S)-5,6,7,8-tetrahydro-8-quinolinyl]amino}methyl)-1H-benzimidazol-1-yl]methyl}-1-piperidinecarboximidamide]
6.30 to 7.00	CCCN/C(=N\C#N)N1CCC[C@H](Cn2c(CN(C)[C@H]3CCCc4cccnc43)nc3ccccc32)C1 [Example 90, (3R)—N-Cyano-3-{[2-({methyl[(8S)-5,6,7,8-tetrahydro-8-quinolinyl]amino}methyl)-1H-benzimidazol-1-yl]methyl}-N′-propyl-1-piperidinecarboximidamide]
> 7.00	CC(C)N(Cc1nc2ccccc2n1CCCN(C)C)C1CCCc2cccnc21 (stereo not drawn) [Example 60, N-({1-[3-(Dimethylamino)propyl]-1H-benzimidazol-2-yl}methyl)-N-(1-methylethyl)-5,6,7,8-tetrahydro-8-quinolinamine]
6.30 to 7.00	CC(C)N1CCC[C@@H]1CN1CCC[C@H](Cn2c(CN(C)[C@H]3CCCc4cccnc43)nc3ccccc32)C1 [Example 109, (8S)—N-Methyl-N-({1-[((3S)-1-{[(2R)-1-(1-methylethyl)-2-pyrrolidinyl]methyl}-3-piperidinyl)methyl]-1H-benzimidazol-2-yl}methyl)-5,6,7,8-tetrahydro-8-quinolinamine]
> 7.00	CC(C)CCN1CCC[C@H](Cn2c(CN(C)[C@H]3CCCc4cccnc43)nc3ccccc32)C1 [Example 84, (8S)—N-Methyl-N-[(1-{[(3S)-1-(3-methylbutyl)-3-piperidinyl]methyl}-1H-benzimidazol-2-yl)methyl]-5,6,7,8-tetrahydro-8-quinolinamine]
> 7.00	CCCN(Cc1nc2ccccc2n1C[C@H]1CCCN(C(C)C)C1)[C@H]1CCCc2cccnc21 [Example 97, (8S)—N-[(1-{[(3S)-1-(1-methylethyl)-3-piperidinyl]methyl}-1H-benzimidazol-2-yl)methyl]-N-propyl-5,6,7,8-tetrahydro-8-quinolinamine]
6.30 to 7.00	CN(C)CC#CCn1c(CN(C)C2CCCc3cccnc32)nc2ccccc21 (stereo not drawn) [Example 56, N-({1-[4-(Dimethylamino)-2-butyn-1-yl}-1H-benzimidazol-2-yl]methyl)-N-methyl-5,6,7,8-tetrahydro-8-quinolinamine]
> 7.00	CN(Cc1nc2ccccc2n1C[C@H]1CCCN(CCO)C1)[C@H]1CCCc2cccnc21 [Example 46, 2-((3S)-3-{[2-({Methyl[(8S)-5,6,7,8-tetrahydro-8-quinolinyl]amino}methyl)-1H-benzimidazol-1-yl]methyl}-1-piperidinyl)ethanol]
> 7.00	CN(Cc1nc2ccccc2n1CCC1CCCCN1)C1CCCc2cccnc21 (stereo not drawn) [Example 23d, N-Methyl-N-({1-[2-(2-piperidinyl)ethyl]-1H-benzimidazol-2-yl}methyl)-5,6,7,8-tetrahydro-8-quinolinamine]
5.00 to 6.30	CN(Cc1nc2ccccc2n1CC(=O)N1CCNCC1)C1CCCc2cccnc21 (stereo not drawn) [Example 32, N-Methyl-N-({1-[2-oxo-2-(1-piperazinyl)ethyl]-1H-benzimidazol-2-yl}methyl)-5,6,7,8-tetrahydro-8-quinolinamine]
> 7.00	CC(C)N1CCC[C@H](Cn2c(CN(CCCO)[C@H]3CCCc4cccnc43)nc3ccccc32)C1 [Example 100, 3-{[(1-{[(3S)-1-(1-Methylethyl)-3-piperidinyl]methyl}-1H-benzimidazol-2-yl)methyl][(8S)-5,6,7,8-tetrahydro-8-quinolinyl]amino}-1-propanol]
